In the NIST ThermoML archive (doi:10.1016/j.jct.2017.05.020):

What was measured:
[1] = 100 kPa, Liquid, Vibrating tube method
[2] = refractive index (Na D-line) (dimensionless); settings: 100 kPa, Liquid, Standard Abbe refractometry
[3] = refractive index (Na D-line) (dimensionless); wn = mass fraction of the nth substance listed; settings: 100 kPa, Liquid, Standard Abbe refractometry, w2 = 0
[4] = wn = mass fraction of the nth substance listed; settings: 100 kPa, Liquid, Vibrating tube method, w2 = 0

OCCOCCO [diethylene glycol]
Settings	mass density, [1] [kg/m3]	refractive index, [2]
293.15 K	1116.5	1.4477
298.15 K	1113	1.4461
303.15 K	1109.4	1.4446
308.15 K	1105.8	1.443
313.15 K	1102.2	1.4415
318.15 K	1098.6	1.44
323.15 K	1095	1.4384
328.15 K	1091.4	1.4368
333.15 K	1087.7	1.4351
338.15 K	1084	1.4334
343.15 K	1080.3	1.4317

OCCOCCO [diethylene glycol] + C=CC[P+](c1ccccc1)(c1ccccc1)c1ccccc1.[Br-]
Settings	mass density, [4] [kg/m3]	refractive index, [3]
293.15 K	1116.5	1.4477
298.15 K	1113	1.4461
303.15 K	1109.4	1.4446
308.15 K	1105.8	1.443
313.15 K	1102.2	1.4415
318.15 K	1098.6	1.44
323.15 K	1095	1.4384
328.15 K	1091.4	1.4368
333.15 K	1087.7	1.4351
338.15 K	1084	1.4334
343.15 K	1080.3	1.4317

OCCOCCOCCO [triethylene glycol]
Settings	mass density, [1] [kg/m3]	refractive index, [2]
293.15 K	1124.6	1.4576
298.15 K	1120.8	1.4558
303.15 K	1116.9	1.4541
308.15 K	1113	1.4523
313.15 K	1109.1	1.4505
318.15 K	1105.2	1.4488
323.15 K	1101.3	1.4469
328.15 K	1097.4	1.445
333.15 K	1093.5	1.4434
338.15 K	1089.6	1.4417
343.15 K	1085.6	1.4399

OCCOCCOCCO [triethylene glycol] + C=CC[P+](c1ccccc1)(c1ccccc1)c1ccccc1.[Br-]
Settings	mass density, [4] [kg/m3]	refractive index, [3]
293.15 K	1124.6	1.4576
298.15 K	1120.8	1.4558
303.15 K	1116.9	1.4541
308.15 K	1113	1.4523
313.15 K	1109.1	1.4505
318.15 K	1105.2	1.4488
323.15 K	1101.3	1.4469
328.15 K	1097.4	1.445
333.15 K	1093.5	1.4434
338.15 K	1089.6	1.4417
343.15 K	1085.6	1.4399
